According to patent US20150072416A1, “METABOLITE FOR IMPROVING PRODUCTION, MAINTENANCE AND PROLIFERATION OF PLURIPOTENT STEM CELLS, COMPOSITION COMPRISING THE SAME, AND METHOD OF CULTURING PLURIPOTENT STEM CELL USING THE SAME” (KOREA RESEARCH INSTITUTE OF BIOSCIENCE AND BIOTENOLOGY, priority 2012, published 2015):

What was measured:
Type in all cases: cell-based
[1] = test system: human fibroblasts transfected with reprogramming factor OSKM; assay: Mitochondrial membrane potential during reprogramming (JC-1, flow cytometry); details: 1 mM
Description: At different time points of reprogramming, the cells of a control group and a nicotinamide-treated group (Nam) were dissociated with single cells by trypsin, and then stained with JC-1 (5,5′,6,6′-tetraachloro-1,1′,3,3′-tetraethylbenzimidazolocarbocyanine iodide) solution at 37° C. for 15 minutes. After washing, the degree of fluorescence staining was measured by flow cytometry, relative mitochondrial membrane potential was quantified by the red/green ratio.

[2] = test system: human embryonic stem cells and human induced pluripotent stem cells; assay: Maintenance of undifferentiated state of pluripotent stem cells (morphology, AP staining); details: for undifferentiated state in UM: 0.1 mM nicotinamide added to UM
Text: Human embryonic stem cells (hESC) H9 (NIH Code, WA09; WiCell Research Institute, Madison, Wis.) and H1 (NIH Code, WA01; WiCell Research Institute) and induced pluripotent stem cells (hiPSC) were each cultured with hESC culture medium (unconditioned medium; UM) or MEF-CM (conditioned medium) on γ-irradiated MEFs (mouse embryonic fibroblasts) or on plates coated with Matrigel (BD Biosciences, Franklin Lakes, N.J.). The cultured human embryonic stem cells and induced pluripotent stem cells were treated with collagenase IV (1 mg/ml; Invitrogen) or dispase (1 mg/ml; Invitrogen) once a week and subcultured. MEF-CM was prepared as γ-irradiated MEF according to a known method (Xu C. Nat Biotechnol 19, 971-974) and supplemented with 8 ng/ml of bFGF. UM contained 80% DMEM/F12, 20% knockout serum replacement (KSR, Invitrogen, Carlsbad, Calif.), 1% non-essential amino acids (NEAA, Invitrogen), 1 mM L-glutamine (Invitrogen), 0.1 mM β-mercaptoethanol (Sigma, St. Louis, Mo.) and 6 ng/ml bFGF (basic fibroblast growth factor, Invitrogen). Particularly, for culture in the absence of feeder cells and serum, human embryonic stem cells and human induced pluripotent stem cells were cultured in mTeSR1 medium (StemCell Technologies). Human newborn foreskin fibroblasts (hFF, ATCC, catalog number CRL-2097; American Type Culture Collection, Manassas, Va.) were cultured in a DMEM medium containing 10% FBS (fetal bovine serum, Invitrogen), 1% non-essential amino acids, 1 mM L-glutamine and 0.1 mM β-mercaptoethanol.
AP staining was performed using a commercial AP kit (Sigma) according to the manufacturer's instruction. Images of AP-positive cells were recorded with HP Scanjet G4010. Also, bight field images were obtained with an Olympus microscope (IX51, Olympus, Japan).
In order to verify the effect of nicotinamide on the maintenance of undifferentiated state of pluripotent stem cells, the present inventors performed the following experiment. While human embryonic stem cells and human pluripotent stem cells were cultured in MEF-CM or UM on feeder-free Matrigel, various NAD precursors including nicotinamide were added to the stem cells, and then the effects of the NAD precursors on the stem cells were verified by examining the morphological change and the expression pattern of AP that is a human embryonic stem cell-specific marker.
In addition, in order to examine the effects of nicotinamide at various concentrations, various concentrations of nicotinamide were added to UM, and the degrees of maintenance of undifferentiation of human embryonic stem cells and human induced pluripotent stem cells, which are pluripotent stem cells, were examined. […] However, it was shown that the addition of a low concentration (<0.01 mM) or high concentration (>5 mM) of nicotinamide could not maintain the undifferentiated state of pluripotent stem cells (FIG. 30).
The effect of nicotinamide effective for maintaining the undifferentiated state of human embryonic stem cells and human induced pluripotent stem cells, which are pluripotent stem cells, was verified under various conditions. […] In order to eliminate the use of feeder cell-derived factors and animal serum and ensure culture conditions including a medium (CDM) whose components are known, various concentrations of nicotinamide were added to mTeSR1 (CDM) without feeder cells, and the effects thereof were examined. As a result, it could be seen that the addition of 0.1 mM of nicotinamide was effective for maintaining the undifferentiated state of various human embryonic stem cell lines (H1 and H9) and the human induced pluripotent stem cell line (hiPS) (FIG. 31).

[3] = test system: human fibroblasts transfected with reprogramming factor OSKM; assay: Quantification of protein damage caused by oxidative stress; details: 1 mM
Description: On days 12, 19 and 26 of induction of reprogramming, protein was isolated from a control group and a nicotinamide-treated group (Nam), after which it was quantified and treated with 2,4-dinitrophenylhydrazine to expose the carbonyl group. The protein was separated according to molecular weight using 10% SDS-polyacrylamide gel, and then protein damage caused by oxidative stress was analyzed using dinitrophenyl antibody. After normalization to the expression level of β-actin, the degree of damage was quantified relative to the degree of damage to hFFs taken as 1.

[4] = test system: human fibroblasts and human fibroblasts transfected with reprogramming factors; assay: Cell growth and proliferation during reprogramming (viable cell count, BrdU, live-cell imaging)
Description: Human fibroblasts were seeded in a 6-well culture dish at a density of about 1×10^5 cells per well. The seeded cells were cultured for 26 days under the indicated culture conditions. To count the cell number, the cells were washed with PBS and treated with trypsin. The cell suspension was mixed with 0.4% (wt/vol) trypan blue solution, and the number of viable cells was counted on day 19 and day 26 using a hemocytometer (FIG. 10). Each experiment was performed in triplicate. Specifically, for BrdU incorporation, cells were incubated in the presence of 30 μM BrdU at 37° C. for 1 hour. After washing with PBS, the cells were fixed with 4% paraformaldehyde for 15 minutes and reacted in 1N HCl at room temperature for 15 minutes. The sample was washed and reacted with 0.1 M sodium tetraborate for 15 minutes. After washing, the cells were reacted with anti-BrdU antibody in 3% BSA-containing PBS for 1 hour, and then reacted with FITC-conjugated secondary antibody for 30 minutes. […] On day 12 of induction of reprogramming, virus expressing the cell-cycle regulators Geminin-GFP (green) and Cdt1-RFP (red) was introduced into the cells for 2 hours while slowly shaking the cells, and then an accelerator was added to the cells, followed by culture for 1 hour. The medium was replaced with fresh medium, and the cells were further cultured overnight and imaged with a fluorescence microscope. The images were obtained for at least 4 sections per sample, and the number of resting-stage cells (red) and dividing cells (green) was counted. The ratio of dividing cells was quantified by the green/red ratio.

## NC(=O)c1cccnc1 [nicotinamide]
[1]
  membrane potential of mitochondria in reprogramming conditions: the membrane potential was maintained
[2]; 0.1 mM
  number of AP-positive cells when feeder cells were used: most increased
[2]
  undifferentiated state in UM: maintained in an undifferentiated state
[2]; listed as Nam
  undifferentiated state in UM: most effectively maintained
[2]; 0.1 mM, H1, H9 and hiPS
  maintaining the undifferentiated state in mTeSR1 (CDM) without feeder cells: effective
[2]; H9 in UM treated with nicotinamide (FIG. 29)
  induction of differentiation in UM, among NAD+ precursors and NAD+: most effectively inhibited
[2]; UM
  high concentration that could not maintain the undifferentiated state: > 5 mM
  low concentration that could not maintain the undifferentiated state: < 0.01 mM
[2]; UM containing nicotinamide (1 mM), 6 days, feeder-free Matrigel
  morphology of hESCs cultured in UM, in comparison with other NAD precursors: showed the morphology of undifferentiated human embryonic stem cells
[2]; hESCs and hiPSCs cultured in UM
  nicotinamide concentration in UM conserving undifferentiated morphology and positive AP expression: 0.1-1 mM
[3]
  amount of damaged protein (oxidative stress): decreased
[4]; 1 mM, day 12 of induction of reprogramming
  ratio of proliferating cells (live cell imaging): increased
[4]; 0.1, 1 and 10 mM, days 19 and 26, concentration-dependent
  number of healthy viable cells: increased
[4]; 0.1-1 mM, day 19 of induction of reprogramming
  number of actually dividing cells incorporated with BrdU: significantly increased
[4]; culture process for inducing reprogramming
  optimal nicotinamide concentration for promoting cell growth: 1 mM
